These results are taken from patent US20180179198A1, “TRICYCLIC MODULATORS OF TNF SIGNALING” (AbbVie Inc., priority 2015, published 2018).

Where two headings read alike, the source gives them in different places.

The target in this assay is TNFα trimer (Homo sapiens, UniProt P01375). Kind of assay: TNFα FP Competitive Binding Assay. As for the experimental part:
TNFα FP Competitive Binding Assay
• 1. Assay Buffer: Prepare 1× Assay Buffer (Water with 47 mM HEPES, 47 mM NaCl, 0.9 mM EDTA, 0.0071% Triton X-100) by adding 25 mL of 1 M HEPES, 5 mL of 5 M NaCl, 1 mL of 0.5 M EDTA, and 375 μL of a 10% Triton X-100 stock to a fresh 500 mL bottle of water. • 2. Assay Mixture: Prepare fresh Assay Mixture containing 20 nM TNFα trimer (60 nM protein) and 1 nM 2′,7′-difluoro-3′,6′-dihydroxy-N-(2-(2-(2-((4-(isoquinolin-8-yl)-3-(4-(isoquinolin-8-yl)phenethoxy)benzyl)oxy)ethoxy)ethoxy)ethyl)-3-oxo-3H-spiro[isobenzofuran-1,9′-xanthene]-5-carboxamide probe in 1× Assay Buffer.
Compound Plate Preparation
Manual 12-point 1:3 Dilution Plates: (384 well polypropylene plates)
Top concentration of compounds, 10 mM in DMSO, dispensed in rows A-O in columns 1 and 13. Compounds are serially diluted 1:3 with DMSO in columns 2-12 or 14-24 using a 16-channel Matrix pipettor. Plates stored at −20° C.
Discovery Preps 12-point 1:3 Dilution Plates: (384 well assay plates)
Top concentration, 5 mM in DMSO, of compounds placed in rows A-O in columns 1 and 13. Compounds are serially diluted 1:3 with DMSO in columns 2-12 or 14-24. Compound solutions are dispensed into replicate assay plates at 410 nL per well. Plates stored at 4° C.
TNFα FP Competitive Binding Assay Protocol
• 1. Compound plates are warmed to rt. • 2. Fresh Assay Mixture is prepared. • 3. Assay Mixture (20 μL) is dispensed each well of 384 assay plates using a Thermo Multidrop Combi or 16-channel Matrix pipettor. If Manual 12-point 1:3 Dilution Plates are to be tested, Assay Mix is dispensed into empty plates. Discovery Preps 12-point 1:3 Dilution Plates already contain 410 nL compound solution in DMSO. • 4. For Manual 12-point 1:3 Dilution Plates, 0.7 μL is manually transferred using a 16-channel Matrix pipettor to replicate assay plates containing 20 μL Assay Mixture for a final top compound concentration of 338 μM (3.4% DMSO). • 5. For Discovery Preps 12-point 1:3 Dilution Plates, 20 μL Assay Mixture added the 410 nL compound solution already in the plates yields a final top compound concentration of 100 μM (2.0% DMSO). • 6. Background subtraction controls are wells P1-P8 containing only Assay Buffer. The low % inhibition controls are wells P9-P16 containing only Assay Mix. The high % inhibition are wells P17-P24 containing only 1 nM 2′,7′-difluoro-3′,6′-dihydroxy-N-(2-(2-(2-((4-(isoquinolin-8-yl)-3-(4-(isoquinolin-8-yl)phenethoxy)benzyl)oxy)ethoxy)ethoxy)ethyl)-3-oxo-3H-spiro[isobenzofuran-1,9′-xanthene]-5-carboxamide probe in 1× Assay Buffer. • 7. Plates are incubated at […] for 18-24 h in 37° C. incubator (CO2 is off). • 8. Prior to reading the assay, the plates are placed in a dark cabinet to equilibrate at rt for one hour. • 9. Background-subtracted fluorescence polarization (mP) is measured using a PerkinElmer Envision plate reader. • 10. Raw data is entered into Assay Explorer and dose-response curves are generated using a variable slope curve.

The mark [1] stands for this setting: TNFα FP competitive binding assay, class symbols A/B/C, read-out: TNF IC50.
[2] abbreviates: fluorescence polarization competition, 20 nM TNFα trimer, 1 nM OregonGreen488 probe, read-out: TNF IC50 (TNFα FP binding assay IC50).

Sequence of TNFα trimer (P01375 77-233 limits assumed): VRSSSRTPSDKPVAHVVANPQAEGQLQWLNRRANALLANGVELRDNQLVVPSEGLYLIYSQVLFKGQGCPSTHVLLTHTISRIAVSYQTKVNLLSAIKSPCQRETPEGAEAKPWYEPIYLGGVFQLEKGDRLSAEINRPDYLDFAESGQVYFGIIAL

A word on the IC50: it is the point on the concentration scale where inhibition reaches its midpoint. As for `c1ccc([C@H]2CCc3nc4ccc(-c5ccnc(OC6COC6)c5)nc4n32)cc1` [AQ.3], the IC50 under setting [1] lay within 1000 to 10000 nM.
On the same count and under the same terms, for `OC1CCCC(Oc2cc(-c3ccc4nc5n(c4n3)[C@@H](c3ccccc3)CC5)ccn2)C1` (stereo partly drawn) [AQ.4] the value was 1000 to 10000 nM.
The same measure, in the same setting: the figure for `c1ccc([C@H]2CCc3nc4ccc(-c5ccnc(OCC6COC6)c5)nc4n32)cc1` [AQ.5] is 1000 to 10000 nM.
On the same count and under the same terms, the figure for `CN1CC[C@@H](Oc2cc(-c3ccc4nc5n(c4n3)[C@@H](c3ccccc3)CC5)ccn2)C1` [AQ.6] is 1000 to 10000 nM; for `OCCOc1cc(-c2ccc3nc4n(c3n2)[C@@H](c2ccccc2)CC4)ccn1` [AQ.7] it is 1000 to 10000 nM.
Turning to `CN1CC[C@H](Oc2cc(-c3ccc4nc5n(c4n3)[C@@H](c3ccccc3)CC5)ccn2)C1` [AQ.8], under setting [1], the IC50 lay within 1000 to 10000 nM.
The same measure, in the same setting: the figure for `O[C@H]1CC[C@@H](Oc2cc(-c3ccc4nc5n(c4n3)[C@@H](c3ccccc3)CC5)ccn2)CC1` [AR.1] is 1000 to 10000 nM.
For the compound `c1ccc([C@H]2CCc3nc4ccc(-c5ccnc(OC6CCOC6)c5)nc4n32)cc1` (stereo partly drawn) [AS.1], under setting [1], the IC50 lay in the range of 1000 to 10000 nM.
The same measure, in the same setting: for `c1ccc([C@H]2CCc3nc4ccc(-c5ccnc(OC6CCCC6)c5)nc4n32)cc1` [AS.2] the value was 1000 to 10000 nM; for `c1ccc([C@H]2CCc3nc4ccc(-c5ccnc(OC6CCCCC6)c5)nc4n32)cc1` [AS.3], 1000 to 10000 nM.
Same read-out and setting: the figure for `COC(=O)C1CCC(Oc2cc(-c3ccc4nc5n(c4n3)[C@@H](c3ccccc3)CC5)ccn2)CC1` (stereo partly drawn) [AS.4] is 1000 to 10000 nM.
Take `COC(=O)C1CCC(Oc2cc(-c3ccc4nc5n(c4n3)[C@@H](c3ccccc3)CC5)ccn2)C1` (stereo partly drawn) [AS.5]: the IC50 under setting [1] lay in the range of 1000 to 10000 nM.
The same measure, in the same setting: for `N#C[C@@H]1CC[C@@H](Oc2cc(-c3ccc4nc5n(c4n3)[C@@H](c3ccccc3)CC5)ccn2)C1` [AS.7] the value was 1000 to 10000 nM; for `c1ccc([C@H]2CCc3nc4ccc(-c5ccnc(OC6CCCNC6)c5)nc4n32)cc1` (stereo partly drawn) [AT.1], 1000 to 10000 nM; for `c1ccc([C@H]2CCc3nc4ccc(-c5ccnc(O[C@@H]6CCNC6)c5)nc4n32)cc1` [AT.2], 1000 to 10000 nM.
Consider `c1ccc([C@H]2CCc3nc4ccc(-c5ccnc(OC6CCC67CCNC7)c5)nc4n32)cc1` (stereo partly drawn) [AT.3], for which the IC50 under setting [1] lay within 1000 to 10000 nM.
Regarding `O=C1NC[C@@H]2CN(c3ncc(-c4ccc5nc6n(c5n4)C4(COC6)COc5ccccc54)cn3)CCN12` (stereo partly drawn) [AU.1], the IC50 under setting [1] was less than 1000 nM.
For the compound `OC1CC(Nc2ncc(-c3ccc4nc5n(c4n3)C3(COC5)COc4ccccc43)cn2)C1` (stereo not drawn) [AU.2], the IC50 under setting [1] was 1000 to 10000 nM.
The same measure, in the same setting: the figure for `c1ccc2c(c1)OCC21COCc2nc3ccc(-c4cnc(NC5CCOC5)nc4)nc3n21` (stereo not drawn) [AU.3] is 1000 to 10000 nM; for `OC1CCCN(c2ncc(-c3ccc4nc5n(c4n3)C3(COC5)COc4ccccc43)cn2)C1` (stereo not drawn) [AU.4] it is less than 1000 nM.
The same measure, in the same setting: for `CN1CCN(c2ncc(-c3ccc4nc5n(c4n3)C3(COC5)COc4ccccc43)cn2)CC1` (stereo not drawn) [AU.5] the value was 1000 to 10000 nM.
The same measure, in the same setting: for `OCC1CCCN(c2ncc(-c3ccc4nc5n(c4n3)C3(CCc4ccccc43)COC5)cn2)C1` (stereo not drawn) [AV.1] the value was less than 1000 nM; for `O=C1NC[C@@H]2CN(c3ncc(-c4ccc5nc6n(c5n4)C4(CCc5ccccc54)COC6)cn3)CCN12` (stereo partly drawn) [AV.2], less than 1000 nM; for `c1ccc2c(c1)CCC21COCc2nc3ccc(-c4cnc(N5CCCOCC5)nc4)nc3n21` (stereo not drawn) [AV.3], less than 1000 nM.
`OC1CCN(c2ncc(-c3ccc4nc5n(c4n3)C3(CCc4ccccc43)COC5)cn2)CC1(F)F` (stereo not drawn) [AV.4]: the IC50 under setting [1] is less than 1000 nM.
On the same count and under the same terms, for `CC(O)C(=O)N1CCN(c2ncc(-c3ccc4nc5n(c4n3)C3(CCc4ccccc43)COC5)cn2)CC1` (stereo not drawn) [AV.5] the value was less than 1000 nM; for `O=C(CO)N1CCN(c2ncc(-c3ccc4nc5n(c4n3)C3(CCc4ccccc43)COC5)cn2)CC1` (stereo not drawn) [AV.6], less than 1000 nM; for `OCC1(F)CCN(c2ncc(-c3ccc4nc5n(c4n3)C3(CCc4ccccc43)COC5)cn2)CC1` (stereo not drawn) [AV.7], less than 1000 nM.
Still for that read-out and setting: the figure for `c1ccc2c(c1)CCC21COCc2nc3ccc(-c4cnc(N5CCOCC5)nc4)nc3n21` (stereo not drawn) [AV.8] is less than 1000 nM; for `OC1CCCN(c2ncc(-c3ccc4nc5n(c4n3)C3(CCc4ccccc43)COC5)cn2)CC1` (stereo not drawn) [AV.9] it is less than 1000 nM; for `O=c1cc(-c2ccc3nc4n(c3n2)[C@@H](c2ccccc2)CC4)ccn1CC1CCC(F)(F)CC1` [AW.1] it is 1000 to 10000 nM.
Still for that read-out and setting: the figure for `COCCn1ccc(-c2ccc3nc4n(c3n2)[C@@H](c2ccccc2)CC4)cc1=O` [AW.2] is 1000 to 10000 nM; for `O=c1cc(-c2ccc3nc4n(c3n2)[C@@H](c2ccccc2)CC4)ccn1CC1CCOCC1` [AW.3] it is 1000 to 10000 nM.
For the compound `O=c1cc(-c2ccc3nc4n(c3n2)[C@@H](c2ccccc2)CC4)ccn1C1CCOCC1` [AW.5], under setting [1], the IC50 lay within 10000 to 100000 nM.
Still for that read-out and setting: the figure for `c1ccc([C@H]2CCc3nc4ccc(-c5cnn(C6CCOCC6)c5)nc4n32)cc1` [AW.6] is 1000 to 10000 nM; for `O[C@H]1CC[C@H](Oc2cc(-c3ccc4nc5n(c4n3)C3(COC5)COc4ccccc43)ccn2)CC1` (stereo partly drawn) [AX.1] it is less than 1000 nM.
Turning to `O[C@H]1CC[C@@H](Oc2cc(-c3ccc4nc5n(c4n3)C3(COC5)COc4ccccc43)ccn2)CC1` (stereo partly drawn) [AX.2], the IC50 under setting [1] is 1000 to 10000 nM.
Still for that read-out and setting: the figure for `OC1CCC(Oc2cc(-c3ccc4nc5n(c4n3)C3(COC5)COc4ccccc43)ccn2)C1` (stereo not drawn) [AX.3] is less than 1000 nM; for `c1nc(N2CCOCC2)ncc1-c1ccc2nc3c(n2n1)C1(CCCCC1)OCC3` [AY.1] it is 1000 to 10000 nM.
As for `c1ccc2c(c1)OCCC21OCCc2nc3ccc(-c4cnc(N5CCOCC5)nc4)nn3c21` (stereo not drawn) [AY.2], the IC50 under setting [1] is less than 1000 nM.
The same measure, in the same setting: the figure for `OC1CCN(c2ncc(-c3ccc4nc5n(c4n3)C(c3ccccc3)COC5)cn2)CC1(F)F` (stereo not drawn) [AZ.1] is less than 1000 nM; for `OC1CCN(c2ncc(-c3ccc4nc5n(c4n3)C(c3ccccc3)COC5)cn2)CC1` (stereo not drawn) [AZ.2] it is less than 1000 nM.
With `c1ccc(C2COCc3nc4ccc(-c5cnc(N6CCCOCC6)nc5)nc4n32)cc1` (stereo not drawn) [AZ.3], the IC50 under setting [1] was in the range of 1000 to 10000 nM.
For the compound `OCC1CCCN(c2ncc(-c3ccc4nc5n(c4n3)C(c3ccccc3)COC5)cn2)C1` (stereo not drawn) [AZ.4], the IC50 under setting [1] was less than 1000 nM.
On the same count and under the same terms, for `OCC1(F)CCN(c2ncc(-c3ccc4nc5n(c4n3)C(c3ccccc3)COC5)cn2)CC1` (stereo not drawn) [AZ.5] the value was less than 1000 nM.
Regarding `CC(O)C(=O)N1CCN(c2ncc(-c3ccc4nc5n(c4n3)C(c3ccccc3)COC5)cn2)CC1` (stereo not drawn) [AZ.6], the IC50 under setting [1] was 1000 to 10000 nM.
`O=C(CO)N1CCN(c2ncc(-c3ccc4nc5n(c4n3)C(c3ccccc3)COC5)cn2)CC1` (stereo not drawn) [AZ.7]: under setting [1], the IC50 is less than 1000 nM.
As for `CC(C)(O)c1ncc(-c2ccc3nc4n(c3c2)C(c2cccc(F)c2)CC4)cn1` (stereo not drawn) [B.1], under setting [2], the IC50 was less than 1000 nM.
Still for that read-out and setting: for `Cc1ccc(C)c(C2CCc3nc4ccc(-c5cnc(C(C)(C)O)nc5)cc4n32)c1` (stereo not drawn) [B.2, 2-(5-(1-(2,5-Dimethylphenyl)-2,3-dihydro-1H-benzo[d]pyrrolo[1,2-a]imidazol-7-yl)pyrimidin-2-yl)propan-2-ol] the value was less than 1000 nM.
For `COc1ncc(-c2ccc3nc4n(c3n2)C2(CCOc3ccccc32)COC4)cn1` (stereo not drawn) [BA.1], under setting [1], the IC50 was 1000 to 10000 nM.
With `CCOc1ncc(-c2ccc3nc4n(c3n2)C2(CCOc3ccccc32)COC4)cn1` (stereo not drawn) [BA.2], under setting [1], the IC50 is less than 1000 nM.
Consider `CS(=O)(=O)c1ncc(-c2ccc3nc4n(c3n2)C2(CCOc3ccccc32)COC4)cn1` (stereo not drawn) [BA.3], for which the IC50 under setting [1] lay within 1000 to 10000 nM.
On the same count and under the same terms, for `c1ccc2c(c1)OCCC21COCc2nc3ccc(-c4cnc(N5CCCNCC5)nc4)nc3n21` (stereo not drawn) [BA.4] the value was 1000 to 10000 nM.
In the case of `CC(C)Nc1ncc(-c2ccc3nc4n(c3n2)C2(CCOc3ccccc32)COC4)cn1` (stereo not drawn) [BA.5], under setting [1], the IC50 was 1000 to 10000 nM.
The same measure, in the same setting: for `c1ccc2c(c1)OCCC21COCc2nc3ccc(-c4cnc(N5CCOCC5)nc4)nc3n21` (stereo not drawn) [BA.6] the value was less than 1000 nM; for `CC(C)(O)c1ncc(-c2ccc3nc4n(c3n2)C2(CCOc3ccccc32)COC4)cn1` (stereo not drawn) [BA.7], 1000 to 10000 nM.
On the same count and under the same terms, for `c1ccc2c(c1)OCCC21COCc2nc3ccc(-c4ccnc(OC5CCOCC5)c4)nc3n21` (stereo not drawn) [BA.8] the value was less than 1000 nM.
